Experimental findings from patent publication US6589970B2, “6-(aryl-amido or aryl-amidomethyl)-naphthalen-2-yloxy-acidic derivatives as inhibitors of plasminogen activator inhibitor type-1 (PAI-1)” (Wyeth, priority 2001, dated 2003) are described below.

One data set concerns the target human PAI-1 (Homo sapiens, UniProt P05121). Put plainly: Assay for Determining IC50 of Inhibition of PAI-1 (Antibody Assay). The conditions noted are these: active PAI-1 bound to tPA-coated plate. It is filed as biochemical. As to the method: This assay is based upon the non-SDS dissociable interaction between tPA and active PAI-1. Assay plates are initially coated with human tPA (10 μg/ml). The test compounds are dissolved in DMSO at 10 mM, then diluted with physiologic buffer (pH 7.5) to a final concentration of 1-50 μM. The test compounds are incubated with human PAI-1 (50 ng/ml) for 15 minutes at room temperature. The tPA-coated plate is washed with a solution of 0.05% Tween 20 and 0.1% BSA, then the plate is blocked with a solution of 3% BSA. An aliquot of the test compound/PAI-1 solution is then added to the tPA-coated plate, incubated at room temperature for 1 hour, and washed. Active PAI-1 bound to the plate is assessed by adding an aliquot of a 1:1000 dilution of the 33B8 monoclonal antibody against human PAI-1, and incubating the plate at room temperature for 1 hour (Molecular Innovations, Royal Oak, Mich. The plate is again washed, and a solution of goat anti-mouse IgG-alkaline phosphatase conjugate is added at a 1:50,000 dilution in goat serum. The plate is incubated 30 minutes at room temperature, washed, and a solution of alkaline phosphatase substrate is added. The plate is incubated 45 minutes at room temperature, and color development is determined at OD405nm. The quantitation of active PAI-1 bound to tPA at varying concentrations of the test compound is used to determine the IC50. Results are analyzed using a logarithmic best-fit equation. The assay sensitivity is 5 ng/ml of human PAI-1 as determined from a standard curve ranging from 0-100 ng/ml.

For data set [1], the target named is T1, recombinant human plasminogen activator inhibitor-1 (PAI-1) (Homo sapiens, UniProt P05121).
T1 construct: purchased Molecular Innovations, Royal Oak, Mich
Put plainly: Modification of the Primary Screen for the PAI-1 Inhibition (IC50). In kind it is biochemical. On the procedure:
Test compounds are dissolved in DMSO at a final concentration of 10 mM, then diluted 100× in physiologic buffer. The inhibitory assay is initiated by the addition of the test compound (1-100 μM final concentration, maximum DMSO concentration of 0.2%) in a pH 6.6 buffer containing 140 nM recombinant human plasminogen activator inhibitor-1 (PAI-1; Molecular Innovations, Royal Oak, Mich.). Following a 1 hour incubation at room temperature, 70 nM of recombinant human tissue plasminogen activator (tPA) is added, and the combination of the test compound, PAI-1 and tPA is incubated for an additional 30 minutes. Following the second incubation, Spectrozyme-tPA (American Diagnostica, Greenwich, Conn.), a chromogenic substrate for tPA, is added and absorbance read at 405 nm at 0 and 60 minutes. Relative PAI-1 inhibition is equal to the residual tPA activity in the presence of the test compound and PAI-1. Control treatments include the complete inhibition of tPA by PAI-1 at the molar ratio employed (2:1), and the absence of any effect of the test compound on tPA alone.

Data set [2] deals with T1, recombinant human plasminogen activator inhibitor-1 (PAI-1). Kind of data set: Primary Screen for the PAI-1 Inhibition. Particulars: for inhibition at 25 µM: 25 μM test compound, read-out: % Inhib. 25 μM; for inhibition at 100 µM: 100 μM test compound, read-out: % Inhib. 100 μM. In kind it is biochemical. The gist of the method:
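Compound (1-100 μM final, ≤0.2% DMSO) was preincubated for 1 h at room temperature with 140 nM recombinant human PAI-1 at pH 6.6. tPA was then added at 70 nM for 30 min. Residual tPA activity was measured with Spectrozyme-tPA (A405 at 0 and 60 min) and taken as relative PAI-1 inhibition.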

Sequence of human PAI-1 (P05121 24-402): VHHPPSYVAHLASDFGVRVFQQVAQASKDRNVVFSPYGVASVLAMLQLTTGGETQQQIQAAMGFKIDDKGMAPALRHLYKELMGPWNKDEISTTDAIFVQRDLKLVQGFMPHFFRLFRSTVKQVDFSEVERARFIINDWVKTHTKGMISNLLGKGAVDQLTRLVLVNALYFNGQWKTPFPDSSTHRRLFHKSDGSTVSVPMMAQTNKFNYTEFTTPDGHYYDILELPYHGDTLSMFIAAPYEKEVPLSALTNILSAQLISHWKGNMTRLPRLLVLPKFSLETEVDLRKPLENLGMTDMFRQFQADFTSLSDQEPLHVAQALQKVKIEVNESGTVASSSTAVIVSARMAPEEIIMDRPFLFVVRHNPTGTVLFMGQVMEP
T1 sequence (P05121 24-402): as above

In the case of `CCCCc1oc2ccccc2c1C(=O)NCc1ccc2c(-c3ccccc3)c(OCc3nnn[nH]3)ccc2c1` [Example 24, 2-Butyl-benzofuran-3-carboxylic acid [5-phenyl-6-(1H-tetrazol-5-ylmethoxy)-naphthalen-2-ylmethyl]-amide], the melting point fell in the range of 192 to 196 °C. Besides, half-maximal inhibition at human PAI-1 (IC50) was put at 16.8 µM. In addition, the IC50 in data set [1] came to 9.94 µM. In data set [2], the inhibition at 25 µM is 25% and the inhibition at 100 µM came to 72%.
The corresponding values for `CCCCc1oc2ccccc2c1C(=O)N(C)Cc1ccc2c(Br)c(OCc3nnn[nH]3)ccc2c1` [Example 31, 2-Butyl-benzofuran-3-carboxylic acid [5-bromo-6-(1H-tetrazol-5-ylmethoxy)-naphthalen-2-ylmethyl]-methyl-amide] are 190 to 194 °C, 8.47 µM, 15.6 µM, 62% and 95%.
The molecule `CCCCc1oc2ccccc2c1C(=O)NCc1ccc2c(Br)c(OCc3nnn[nH]3)ccc2c1.[Na]` [Example 17, 2-Butyl-benzofuran-3-carboxylic acid [5-bromo-6-(1H-tetrazol-5-ylmethoxy)-naphthalen-2-ylmethyl]-amide sodium salt] registered a melting point of 214 to 215 °C. At human PAI-1, this molecule gave an IC50 of 16.1 µM. In addition, in data set [1], the IC50 amounted to 1.4 µM. For the same molecule, in data set [2], the inhibition at 100 µM turned out to be 80%.
`O=C(NCc1ccc2c(Br)c(OC(Cc3ccccc3)C(=O)O)ccc2c1)c1ccc(Oc2cc(Cl)cc(Cl)c2)o1` (stereo not shown) [Example 53, 2-[1-Bromo-6-({[5-(3,5-dichloro-phenoxy)-furan-2-carbonyl]-amino}-methyl)-naphthalen-2-yloxy]-3-phenyl-propionic acid] registered a melting point of 86 to 100 °C. The same molecule gave an IC50 against human PAI-1 of 8.12 µM. The IC50 in data set [1] was 8.7 µM. Moreover, in data set [2], the inhibition at 25 µM stood at 35% and the inhibition at 100 µM came to 86%.
